In ChEMBL document CHEMBL2163222 (J Med Chem, 2012):
The source made the active and inactive calls. The calls are words filed in the database; no cut-off is given here.

Tests used:
OE33 = assay: Growth inhibition of human OE33 cells after 3 days by MTT assay; assay type: functional, cell-based; conditions: OE33, 72 h
[1] = Growth inhibition of human OE21 cells after 3 days by MTT assay; assay type: functional, cell-based; conditions: OE21, 72 h
[2] = Cytostatic activity in human U373 cells at 31 uM assessed global growth ratio after 72 hrs by quantitative video microscopy; assay type: functional, U-373MG ATCC
[3] = target: Dual specificity tyrosine-phosphorylation-regulated kinase 1A (Homo sapiens, UniProt Q13627); assay: Inhibition of DYRK1A kinase using RBER-CHKtide substrate by radiometric protein kinase assay
T98G = assay: cells; conditions: Homo sapiens, 72 h
Hs 683 [4] = assay: cells; conditions: Homo sapiens, Hs 683, 72 h
cells = conditions: Homo sapiens, U373 MG, 72 h
[5] = Cytostatic activity in human U373 cells at 18 uM assessed global growth ratio after 72 hrs by quantitative video microscopy; assay type: functional, U-373MG ATCC
[6] = Solubility of compound at pH 7.4; assay type: physicochemical; conditions: buffer
[7] = Cytostatic activity in human U373 cells at 64 uM assessed global growth ratio after 72 hrs by quantitative video microscopy; assay type: functional, U-373MG ATCC
[8] = target: Serine/threonine-protein kinase 17A (Homo sapiens) (UniProt Q9UEE5); assay: Inhibition of STK17A assessed as residual enzyme activity at 10 uM by radiometric protein kinase assay
Serine/threonine-protein kinase 17A (Homo sapiens), sequence (Q9UEE5 whole entry): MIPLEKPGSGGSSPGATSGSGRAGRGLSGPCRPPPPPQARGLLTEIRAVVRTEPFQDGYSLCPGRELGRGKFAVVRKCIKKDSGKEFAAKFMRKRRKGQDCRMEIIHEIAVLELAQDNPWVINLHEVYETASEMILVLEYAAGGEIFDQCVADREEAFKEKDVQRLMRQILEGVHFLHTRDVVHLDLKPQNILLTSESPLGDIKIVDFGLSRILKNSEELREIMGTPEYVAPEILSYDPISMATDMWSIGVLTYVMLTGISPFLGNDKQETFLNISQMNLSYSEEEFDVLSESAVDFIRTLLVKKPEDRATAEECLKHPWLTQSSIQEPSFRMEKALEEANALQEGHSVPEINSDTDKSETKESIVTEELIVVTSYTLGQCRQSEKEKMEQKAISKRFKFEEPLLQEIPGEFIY

[9] = Inhibition of eIF2 protein expression in human Hs683 cells at 5 uM after 4 hrs by Western blotting method; assay type: functional, cell-based; conditions: Hs 683
Hs 683 [10] = assay: Inhibition of eIF2 activity in human Hs683 cells at 5 uM after 4 hrs by Western blotting method; assay type: functional, cell-based
[11] = target: MAP kinase-interacting serine/threonine-protein kinase 1 (Homo sapiens) (UniProt Q9BUB5); assay: Inhibition of MKNK1 assessed as residual enzyme activity at 10 uM by radiometric protein kinase assay
MAP kinase-interacting serine/threonine-protein kinase 1 (Homo sapiens), sequence (Q9BUB5 whole entry, looked up): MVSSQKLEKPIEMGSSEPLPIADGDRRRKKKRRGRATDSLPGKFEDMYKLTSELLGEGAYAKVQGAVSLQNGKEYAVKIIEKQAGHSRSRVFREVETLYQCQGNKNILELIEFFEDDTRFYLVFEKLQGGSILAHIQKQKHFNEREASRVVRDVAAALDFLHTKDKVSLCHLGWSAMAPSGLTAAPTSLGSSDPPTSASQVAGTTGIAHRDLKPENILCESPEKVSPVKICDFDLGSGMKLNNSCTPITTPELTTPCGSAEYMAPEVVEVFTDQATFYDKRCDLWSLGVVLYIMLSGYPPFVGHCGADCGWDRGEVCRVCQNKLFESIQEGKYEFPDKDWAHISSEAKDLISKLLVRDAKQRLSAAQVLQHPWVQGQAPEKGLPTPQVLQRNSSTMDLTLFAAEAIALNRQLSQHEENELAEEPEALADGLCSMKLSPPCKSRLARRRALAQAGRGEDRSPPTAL

U-373MG ATCC = assay: Inhibition of eIF2 activity in human U373 cells at 1 uM after 4 hrs by Western blotting method; assay type: functional, cell-based
[12] = target: Calcium/calmodulin-dependent protein kinase type II subunit delta (Homo sapiens) (UniProt Q13557); assay: Inhibition of CAMK2D assessed as residual enzyme activity at 10 uM by radiometric protein kinase assay
[13] = target: Tyrosine-protein kinase CSK (Homo sapiens) (UniProt P41240); assay: Inhibition of CSK assessed as residual enzyme activity at 10 uM by radiometric protein kinase assay
[14] = target: Myosin light chain kinase 2, skeletal/cardiac muscle (Homo sapiens) (UniProt Q9H1R3); assay: Inhibition of MYLK2 assessed as residual enzyme activity at 10 uM by radiometric protein kinase assay
Myosin light chain kinase 2, skeletal/cardiac muscle (Homo sapiens), sequence (Q9H1R3 whole entry): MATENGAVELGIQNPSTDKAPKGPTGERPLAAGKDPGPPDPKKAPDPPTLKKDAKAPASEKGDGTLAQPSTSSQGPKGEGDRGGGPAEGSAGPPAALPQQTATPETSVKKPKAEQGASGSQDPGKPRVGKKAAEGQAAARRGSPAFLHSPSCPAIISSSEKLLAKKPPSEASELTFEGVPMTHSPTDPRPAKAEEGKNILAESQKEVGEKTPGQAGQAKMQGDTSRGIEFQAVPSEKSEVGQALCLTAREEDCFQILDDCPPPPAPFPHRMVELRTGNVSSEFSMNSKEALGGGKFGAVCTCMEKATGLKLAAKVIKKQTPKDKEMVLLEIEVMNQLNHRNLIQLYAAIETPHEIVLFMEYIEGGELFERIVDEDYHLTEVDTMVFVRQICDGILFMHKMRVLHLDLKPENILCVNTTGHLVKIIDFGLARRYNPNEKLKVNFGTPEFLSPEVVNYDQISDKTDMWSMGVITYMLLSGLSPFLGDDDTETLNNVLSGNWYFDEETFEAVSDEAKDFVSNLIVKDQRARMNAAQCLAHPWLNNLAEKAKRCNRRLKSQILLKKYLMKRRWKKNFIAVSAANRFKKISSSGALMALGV

Mus musculus = species on record: Mus musculus; assay: Toxicity in mouse assessed as drug tolerance; assay type: organism-based; conditions: in vivo
[15] = target: Calcium/calmodulin-dependent protein kinase type II subunit alpha (Homo sapiens) (UniProt Q9UQM7); assay: Inhibition of CAMK2A assessed as residual enzyme activity at 10 uM by radiometric protein kinase assay
Calcium/calmodulin-dependent protein kinase type II subunit alpha (Homo sapiens), sequence (Q9UQM7 whole entry): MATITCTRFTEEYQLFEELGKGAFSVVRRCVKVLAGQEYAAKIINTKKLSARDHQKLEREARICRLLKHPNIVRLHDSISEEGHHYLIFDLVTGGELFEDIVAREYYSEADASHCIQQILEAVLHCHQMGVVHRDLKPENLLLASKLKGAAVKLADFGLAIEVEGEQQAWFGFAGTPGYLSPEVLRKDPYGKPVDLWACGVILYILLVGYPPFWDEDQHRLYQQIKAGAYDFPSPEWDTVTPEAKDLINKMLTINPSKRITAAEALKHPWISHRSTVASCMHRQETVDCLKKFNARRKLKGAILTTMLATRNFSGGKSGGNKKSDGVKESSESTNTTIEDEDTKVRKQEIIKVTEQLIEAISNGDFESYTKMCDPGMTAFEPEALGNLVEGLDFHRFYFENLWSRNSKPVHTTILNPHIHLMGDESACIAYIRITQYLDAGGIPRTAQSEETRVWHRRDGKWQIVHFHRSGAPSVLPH

[16] = target: TGF-beta receptor type-1 (Homo sapiens) (UniProt P36897); assay: Inhibition of TGFB-R1 assessed as residual enzyme activity at 10 uM by radiometric protein kinase assay
[17] = Cytostatic activity in human U373 cells at 0.9 uM assessed global growth ratio after 72 hrs by quantitative video microscopy; assay type: functional, U-373MG ATCC
[18] = target: TGF-beta receptor type-2 (Homo sapiens) (UniProt P37173); assay: Inhibition of TGFB-R2 assessed as residual enzyme activity at 10 uM by radiometric protein kinase assay
TGF-beta receptor type-2 (Homo sapiens), sequence (P37173 whole entry): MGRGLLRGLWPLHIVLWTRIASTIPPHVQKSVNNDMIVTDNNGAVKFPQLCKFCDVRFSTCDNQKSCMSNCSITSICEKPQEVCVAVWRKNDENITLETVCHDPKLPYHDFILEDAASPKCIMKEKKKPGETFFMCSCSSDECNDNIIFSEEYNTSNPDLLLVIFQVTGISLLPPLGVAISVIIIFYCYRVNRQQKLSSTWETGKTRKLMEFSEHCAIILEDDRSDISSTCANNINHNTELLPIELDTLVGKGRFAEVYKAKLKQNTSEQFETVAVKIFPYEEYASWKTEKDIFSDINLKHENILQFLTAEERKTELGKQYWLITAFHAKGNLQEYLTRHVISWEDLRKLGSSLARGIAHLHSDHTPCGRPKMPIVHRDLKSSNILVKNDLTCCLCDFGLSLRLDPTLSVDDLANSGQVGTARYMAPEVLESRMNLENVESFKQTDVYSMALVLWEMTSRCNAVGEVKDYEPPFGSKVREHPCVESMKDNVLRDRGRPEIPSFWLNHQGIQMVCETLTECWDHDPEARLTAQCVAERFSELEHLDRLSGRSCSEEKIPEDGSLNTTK

[19] = target: Myosin light chain kinase, smooth muscle (Homo sapiens) (UniProt Q15746); assay: Inhibition of MYLK assessed as residual enzyme activity at 10 uM by radiometric protein kinase assay
Myosin light chain kinase, smooth muscle (Homo sapiens), sequence (Q15746 whole entry): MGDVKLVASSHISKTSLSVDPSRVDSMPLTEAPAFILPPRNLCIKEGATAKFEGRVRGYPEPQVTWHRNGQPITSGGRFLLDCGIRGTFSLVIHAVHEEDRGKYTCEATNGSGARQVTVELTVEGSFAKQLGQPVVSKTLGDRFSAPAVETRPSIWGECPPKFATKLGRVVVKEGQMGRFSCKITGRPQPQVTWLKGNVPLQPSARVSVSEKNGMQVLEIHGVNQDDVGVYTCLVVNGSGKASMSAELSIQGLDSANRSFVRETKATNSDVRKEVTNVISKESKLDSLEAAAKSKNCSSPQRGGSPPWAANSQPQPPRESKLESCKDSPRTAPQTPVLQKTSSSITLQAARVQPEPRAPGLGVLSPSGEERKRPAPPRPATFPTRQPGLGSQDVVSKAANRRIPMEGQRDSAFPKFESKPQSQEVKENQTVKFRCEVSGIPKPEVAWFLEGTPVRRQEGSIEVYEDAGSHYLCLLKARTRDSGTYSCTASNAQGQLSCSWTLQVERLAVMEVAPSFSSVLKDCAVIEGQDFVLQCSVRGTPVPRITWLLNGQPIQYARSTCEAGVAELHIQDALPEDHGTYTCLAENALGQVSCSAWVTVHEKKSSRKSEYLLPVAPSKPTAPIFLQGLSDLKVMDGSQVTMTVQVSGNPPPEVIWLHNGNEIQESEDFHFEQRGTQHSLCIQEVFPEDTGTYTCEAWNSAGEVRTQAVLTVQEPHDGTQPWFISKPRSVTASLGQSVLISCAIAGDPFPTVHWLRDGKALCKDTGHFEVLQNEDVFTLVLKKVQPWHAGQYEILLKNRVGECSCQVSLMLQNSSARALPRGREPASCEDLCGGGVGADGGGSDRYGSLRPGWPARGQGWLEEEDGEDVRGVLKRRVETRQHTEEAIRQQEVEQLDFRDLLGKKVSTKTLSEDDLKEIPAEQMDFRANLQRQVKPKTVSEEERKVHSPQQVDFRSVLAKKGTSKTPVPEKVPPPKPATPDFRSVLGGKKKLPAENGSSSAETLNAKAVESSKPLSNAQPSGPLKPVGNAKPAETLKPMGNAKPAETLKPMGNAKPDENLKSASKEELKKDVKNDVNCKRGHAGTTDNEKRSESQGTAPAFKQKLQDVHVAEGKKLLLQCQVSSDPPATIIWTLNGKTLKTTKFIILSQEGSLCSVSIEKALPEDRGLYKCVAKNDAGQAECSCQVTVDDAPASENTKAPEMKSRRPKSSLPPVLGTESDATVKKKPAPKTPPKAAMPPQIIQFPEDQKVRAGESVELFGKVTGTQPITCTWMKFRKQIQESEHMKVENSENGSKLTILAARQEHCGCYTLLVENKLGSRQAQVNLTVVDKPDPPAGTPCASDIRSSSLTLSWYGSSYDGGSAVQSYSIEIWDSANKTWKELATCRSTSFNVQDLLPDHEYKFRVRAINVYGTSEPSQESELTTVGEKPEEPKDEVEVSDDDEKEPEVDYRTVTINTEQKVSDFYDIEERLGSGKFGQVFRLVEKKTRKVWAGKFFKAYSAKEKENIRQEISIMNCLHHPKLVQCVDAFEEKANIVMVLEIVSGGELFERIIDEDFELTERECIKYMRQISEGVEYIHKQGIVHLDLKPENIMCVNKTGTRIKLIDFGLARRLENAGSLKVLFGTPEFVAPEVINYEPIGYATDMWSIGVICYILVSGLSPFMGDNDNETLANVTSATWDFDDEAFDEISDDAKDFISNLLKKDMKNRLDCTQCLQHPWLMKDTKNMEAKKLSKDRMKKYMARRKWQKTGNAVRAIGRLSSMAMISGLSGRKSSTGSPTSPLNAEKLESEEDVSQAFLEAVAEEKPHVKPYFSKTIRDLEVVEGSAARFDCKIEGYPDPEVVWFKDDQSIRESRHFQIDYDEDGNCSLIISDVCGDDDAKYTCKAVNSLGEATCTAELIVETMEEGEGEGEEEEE

[20] = target: Tyrosine-protein kinase Tec (Homo sapiens) (UniProt P42680); assay: Inhibition of TEC assessed as residual enzyme activity at 10 uM by radiometric protein kinase assay
Tyrosine-protein kinase Tec (Homo sapiens), sequence (P42680 whole entry): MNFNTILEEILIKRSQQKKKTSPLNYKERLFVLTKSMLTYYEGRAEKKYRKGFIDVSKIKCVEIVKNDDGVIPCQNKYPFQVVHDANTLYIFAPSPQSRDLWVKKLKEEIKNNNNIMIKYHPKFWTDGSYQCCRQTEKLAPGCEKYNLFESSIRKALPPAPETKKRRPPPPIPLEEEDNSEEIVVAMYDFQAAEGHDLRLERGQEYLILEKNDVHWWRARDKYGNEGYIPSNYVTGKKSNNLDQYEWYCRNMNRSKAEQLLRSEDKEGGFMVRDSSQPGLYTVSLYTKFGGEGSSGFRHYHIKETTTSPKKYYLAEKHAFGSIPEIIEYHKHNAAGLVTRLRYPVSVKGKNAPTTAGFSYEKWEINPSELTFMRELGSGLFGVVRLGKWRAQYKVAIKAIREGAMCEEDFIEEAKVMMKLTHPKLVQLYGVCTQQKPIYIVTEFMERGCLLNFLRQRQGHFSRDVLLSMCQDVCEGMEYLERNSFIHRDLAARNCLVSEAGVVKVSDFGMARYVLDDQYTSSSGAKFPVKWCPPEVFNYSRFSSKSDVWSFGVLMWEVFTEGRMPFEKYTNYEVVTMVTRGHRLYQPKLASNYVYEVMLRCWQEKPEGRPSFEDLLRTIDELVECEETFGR

[21] = Inhibition of eIF2 protein expression in human U373 cells at 1 uM after 4 hrs by Western blotting method; assay type: functional, cell-based; conditions: U-373MG ATCC
[22] = target: Tyrosine-protein kinase Fer (Homo sapiens) (UniProt P16591); assay: Inhibition of FER assessed as residual enzyme activity at 10 uM by radiometric protein kinase assay
[23] = Cytostatic activity in human U373 cells at 24 uM assessed global growth ratio after 72 hrs by quantitative video microscopy; assay type: functional, U-373MG ATCC

Compound	IC50 (OE33)	IC50 [1]	IC50 [3]	IC50 (T98G)	IC50 (Hs 683 [4])	IC50 (cells)	other results
Cc1nccc2c3ccc(OCC4CCCCC4)cc3n(CC3CCCCC3)c12	15 µM	17 µM	> 10 µM	32 µM	30 µM	31 µM	Ratio [2]: 0.17
Cc1nccc2c3ccc(OCc4ccccc4)cc3n(Cc3ccccc3)c12	40 µM	28 µM		36 µM	33 µM	18 µM	Ratio [5]: 0.3; solubility ([6]; read-out: solubility): < 3 µM
COCCOc1ccc2c(c1)[nH]c1c(C)nccc12	66 µM	53 µM	16 µM	61 µM	53 µM	64 µM	Ratio [7]: 0.23
Cc1c2c(cc[n+]1Cc1ccc(F)cc1)c1ccc(OCc3cccc(F)c3)cc1n2Cc1cccc(F)c1.[Br-]	3.4 µM	2.9 µM		1.9 µM	4.5 µM	0.9 µM	Activity [8]: < 1%; inhibition [9]: Active; inhibition (Hs 683 [10]): Active; solubility [6]: 53 µM; Activity [11]: 10%; inhibition (U-373MG ATCC): Active; Activity [12]: 2%; Activity [13]: 10%; Activity [14]: 7%; Activity (Mus musculus): Non-toxic; Activity [15]: 1%; Activity [16]: 6%; Ratio [17]: 0.53; Activity [18]: 6%; Activity [19]: 2%; Activity [20]: 8%; inhibition [21]: Active; Activity [22]: 7%
Cc1nccc2c1[nH]c1cc(OCc3cccnc3)ccc12	31 µM	28 µM	10 µM	29 µM	30 µM	24 µM	Ratio [23]: 0.29
